Measurements taken from patent US5869650A, “Dendroamide compounds and their use in chemosensitizing multidrug resistant cells” (Fox Chase Cancer Center, priority 1996, dated 1999).
Entries after “also recorded” stand apart in the source; their conditions may differ.

What was measured:
[1] = system: MCF-7/ADR cells (overexpress P-glycoprotein); assay: [3H]vinblastine accumulation in MCF-7/ADR cells; type: cell-based
Protocol: The reduction in intracellular accumulation of anticancer drugs due to expression of P-glycoprotein can be at least partially reversed by compounds which interact with the drug transporter.
D. Smith et al., Mol. Pharm. 45:241-247 (1995), using 20 nm [^3 H]vinblastine sulfate (10-15 Ci/mmole) from the Amersham Corporation.
[^3 H]vinblastine was then added and its intracellular accumulation after 60 minutes was determined. Values shown in FIG. 1 represent the mean ± standard deviation accumulation of [^3 H]vinblastine in triplicate samples in one of three similar experiments.

MCF-7 cells = assay: [3H]vinblastine accumulation in MCF-7 cells; type: cell-based; details: parental MCF-7 cells
Protocol: D. Smith et al., Mol. Pharm.
[^3 H]vinblastine was then added and its intracellular accumulation after 60 minutes was determined.

MCF-7/ADR cells = assay: Chemosensitization of MCF-7/ADR cells (sulforhodamine binding assay, cell killing by anticancer drugs); type: cell-based
Protocol: FIGS. 2A and 2B show the chemosensitization of MCF-7/ADR breast carcinoma cells by Compound A. In FIG. 2A, MCF-7/ADR cells were treated with the indicated concentrations of Compound A in the presence of 15 μM daunomycin (.quadrature.), 200 nM actinomycin D (Δ) or 4 μM cisplatin (.largecircle.). In FIG. 2B, MCF-7 cells (.diamond-solid.) or MCF-7/ADR cells treated with 1% ethanol (.diamond.), 0.6 (.quadrature.) or 2.5 μM of Compound A (Δ) were incubated with the indicated concentrations of vinblastine.
The ability of Compound A to reverse MDR was examined using MCF-7/ADR cells breast carcinoma cells which were obtained as described in Example 5. The effects of Compound A on cell growth were characterized using the sulforhodamine binding assay (P. Skehan et al., J. Natl. Cancer Inst. 82:1107-1112 (1990)) as described in C. D. Smith et al., Oncology Res. 6:211-218 (1994) and C. D. Smith et al., Mol. Pharm. 45:241-247 (1995). Cell survival was assessed after 48 hours of treatment and was expressed as the percentage of cells killed.
The results of the chemosensitization tests showing the effect of the MDR reversing agent Compound A on cell killing by anticancer drugs in the multiple drug resistant MCF-7/ADR cells are shown in FIGS. 2A and 2B. The MCF-7/ADR cells were treated with the indicated concentrations of Compound A in the presence of daunomycin, actinomycin D and or cisplatin. Values shown in FIGS. 2A and 2B represent the mean±standard deviation for triplicate samples in one of two similar experiments.

P-glycoprotein [2] = target: T1, P-glycoprotein (Homo sapiens, UniProt P08183)
P-glycoprotein [3] = target: T1, P-glycoprotein; assay: biochemical
[4] = system: MCF-7/VP cells (express multidrug resistance-related protein (MRP)); assay: Chemosensitization of MCF-7/VP cells (sulforhodamine binding assay, cytotoxicity of anticancer drugs)
MDR cells = details: cited from earlier work
[5] = Tsuruo et al., Cancer Res. 41:1967 (1981)

T1 sequence (P08183 whole entry): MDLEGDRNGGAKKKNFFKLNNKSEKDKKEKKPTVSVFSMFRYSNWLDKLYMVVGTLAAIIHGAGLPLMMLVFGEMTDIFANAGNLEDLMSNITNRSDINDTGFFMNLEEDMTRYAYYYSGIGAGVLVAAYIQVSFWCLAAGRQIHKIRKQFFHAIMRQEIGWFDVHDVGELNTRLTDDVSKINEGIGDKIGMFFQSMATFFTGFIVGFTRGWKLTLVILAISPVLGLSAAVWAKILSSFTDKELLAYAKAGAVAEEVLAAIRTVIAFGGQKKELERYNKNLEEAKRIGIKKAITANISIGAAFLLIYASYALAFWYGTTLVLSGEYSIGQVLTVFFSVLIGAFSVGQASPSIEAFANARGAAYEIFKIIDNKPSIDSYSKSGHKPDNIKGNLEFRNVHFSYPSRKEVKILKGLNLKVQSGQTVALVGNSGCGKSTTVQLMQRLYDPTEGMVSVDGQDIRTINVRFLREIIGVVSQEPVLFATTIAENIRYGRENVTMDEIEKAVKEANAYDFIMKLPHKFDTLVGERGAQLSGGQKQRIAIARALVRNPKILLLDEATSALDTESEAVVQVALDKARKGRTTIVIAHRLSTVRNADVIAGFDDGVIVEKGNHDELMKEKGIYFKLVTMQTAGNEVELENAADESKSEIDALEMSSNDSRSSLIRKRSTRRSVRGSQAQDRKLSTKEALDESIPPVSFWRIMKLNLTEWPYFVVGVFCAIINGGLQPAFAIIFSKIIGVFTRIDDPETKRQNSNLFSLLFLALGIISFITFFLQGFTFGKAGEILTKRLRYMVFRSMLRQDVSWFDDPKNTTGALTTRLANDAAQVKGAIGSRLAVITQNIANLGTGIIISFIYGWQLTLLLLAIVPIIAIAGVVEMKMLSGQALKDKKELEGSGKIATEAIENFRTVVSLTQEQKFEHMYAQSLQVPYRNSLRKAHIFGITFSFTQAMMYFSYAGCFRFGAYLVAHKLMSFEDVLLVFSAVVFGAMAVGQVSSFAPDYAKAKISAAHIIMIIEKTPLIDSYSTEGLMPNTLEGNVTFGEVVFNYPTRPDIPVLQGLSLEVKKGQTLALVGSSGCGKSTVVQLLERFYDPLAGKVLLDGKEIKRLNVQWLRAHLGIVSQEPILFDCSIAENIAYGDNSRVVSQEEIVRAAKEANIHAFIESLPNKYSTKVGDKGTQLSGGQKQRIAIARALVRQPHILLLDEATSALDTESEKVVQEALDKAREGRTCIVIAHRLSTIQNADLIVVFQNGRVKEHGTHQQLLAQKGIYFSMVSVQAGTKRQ

Row | Compound | ability to increase the accumulation of [3H]vinblastine (in words) ([1]; Compound A compared with verapamil) | activity at 5 µM ([1]; Homo sapiens, NCI/ADR-RES, 1 h, 5 μM, 30 min preincubation, accumulation after 60 min, FIG. 1) | EC (maximal effect) ([1]; Homo sapiens, NCI/ADR-RES, 1 h, FIG. 1, read-out: concentration of maximal effect on [3H]vinblastine accumulation) | effect on accumulation of [3H]vinblastine (in words) (MCF-7 cells) | active concentrations for chemosensitization (in words) (MCF-7/ADR cells; daunomycin or actinomycin D, FIG. 2A) | reversal of P-glycoprotein-mediated MDR (in words) (MCF-7/ADR cells; vinblastine, FIG. 2B) | effect on cell killing by actinomycin D (MCF-7/ADR cells; with actinomycin D (200 nM in FIG. 2A), 48 hours) | effect on cytotoxicity of cisplatin (MCF-7/ADR cells; with cisplatin (4 μM in FIG. 2A), 48 hours) | effect on cell killing by daunomycin (MCF-7/ADR cells; with daunomycin (15 μM in FIG. 2A), 48 hours) | effect on cell killing by vinblastine (MCF-7/ADR cells; with vinblastine, 48 hours) | binding of [3H]azidopine to P-glycoprotein (in words) (P-glycoprotein [2]) | IC50 (P-glycoprotein [3]) | reversal of MRP-mediated resistance to vincristine (in words) ([4]; MCF-7/VP cells, 10 μM, 48 hours) | effect on responses to cisplatin ([4]; MCF-7/VP cells, with cisplatin) | intracellular accumulation of anticancer drugs (in words) (MDR cells; [5]) | sensitization of MDR cells to anticancer drugs (in words) (MDR cells; [5]) | reversing activity in cultured cells (in words) (MDR cells; cultured cells) | fold resistance of MCF-7/VP cells in comparison with MCF-7 cells ([4]; vincristine, MCF-7/VP vs MCF-7 cells)
1 | Cc1oc2nc1C(=O)N[C@H](C(C)C)c1nc(cs1)C(=O)N[C@H](C)c1nc(cs1)C(=O)N[C@@H]2C [Compound A, Cyclo-D-Val-Tzl-D-Ala-Tzl-D-Ala-mOzl] | more potent than verapamil; also recorded: strongly enhanced | 750% | 20 µM | Neither Compound A nor verapamil increased the accumulation | activity at submicromolar concentrations | completely overcomes P-glycoprotein-mediated MDR | killed more effectively; also recorded: markedly potentiating cell killing | did not alter the cytotoxicity of cisplatin | killed more effectively; also recorded: markedly potentiating cell killing | markedly potentiating cell killing | progressive decreases in binding | 500 nM | fully reversed; also recorded: fully reverses MRP-mediated resistance | did not modulate responses to cisplatin | – | – | – | –
2 | COc1ccc(CCN(C)CCCC(C#N)(c2ccc(OC)c(OC)c2)C(C)C)cc1OC (stereo not shown) [verapamil] | – | – | – | Neither Compound A nor verapamil increased the accumulation | – | – | – | – | – | – | – | – | – | – | promote intracellular accumulation of those drugs | sensitize MDR cells to anticancer drugs | potent and effective reversing agent | –
3 | CC[C@]1(O)C[C@H]2CN(CCc3c([nH]c4ccccc34)[C@@](C(=O)OC)(c3cc4c(cc3OC)N(C=O)[C@H]3[C@@](O)(C(=O)OC)[C@H](OC(C)=O)[C@]5(CC)C=CCN6CC[C@]43[C@@H]65)C2)C1 [vincristine, reference compound] | – | – | – | – | – | – | – | – | – | – | – | – | – | – | – | – | – | 15 fold
